Assay results reported in patent US20230158084A1, “PROBIOTICS, METABOLITES, AND USES THEREOF” (California Institute of Technology, priority 2018, published 2023).
Entries after “also recorded” stand apart in the source; their conditions may differ.

Experiments:
Format in all cases: in vivo, mouse
[1] = system: pyramidal neurons in the L5 of the mPFC; assay: Electrophysiology in acute slices from treated BTBR mice (mEPSC, mIPSC, excitability); conditions: BTBR mice given 10 mM in drinking water starting 3-4 weeks of age
Protocol: FIGS. 8A-E are a series of graphs illustrating effects of microbial metabolites on brain activity of mice in accordance with some embodiments herein. Mice were orally administered 10 mM Taurine or 5AV in drinking water starting 3-4 weeks of age mating, and throughout their lifetime. FIG. 8A illustrates effects on amplitude and frequency of mEPSCs in pyramidal neurons in the L5 of the mPFC in acute slices from BTBR mice treated with 5AV, Taurine, or control. FIG. 8B illustrates effects on amplitude and frequency of mIPSCs in pyramidal neurons in the L5 of the mPFC in acute slices from BTBR mice treated with 5AV, Taurine, or control. Hypotheses for FIGS. 8A-B were tested by ANOVA on trimmed means (10%) and subsequent post-hoc tests. FIG. 8C illustrates effects on excitability of pyramidal neurons in the L5 of the mPFC in acute slices from BTBR mice treated with 5AV, Taurine, or control in response to step-wise injection current, as measured by the number of action potential spikes. 2-way ANOVA. BTBR mice were orally administered 10 mM Taurine or 5AV in drinking water starting 3-4 weeks of age mating, and throughout their lifetime, and effects on the brain were observed. FIG. 8A illustrates effects on amplitude and frequency of mEPSCs in pyramidal neurons in the L5 of the mPFC in acute slices from BTBR mice treated with 5AV, Taurine, or control. FIG. 8B illustrates effects on amplitude and frequency of mIPSCs in pyramidal neurons in the L5 of the mPFC in acute slices from BTBR mice treated with 5AV, Taurine, or control. Hypotheses for FIGS. 8A-B were tested by ANOVA on trimmed means (10%) and subsequent post-hoc tests. FIG. 8C illustrates effects on excitability of pyramidal neurons in the L5 of the mPFC in acute slices from BTBR mice treated with 5AV, Taurine, or control in response to step-wise injection current, as measured by the number of action potential spikes. 2-way ANOVA.

BTBR mice = assay: Direct social interaction (DSI) test, BTBR mice given metabolites; conditions: BTBR offspring; 10 mM in drinking water before mating and throughout lifetime (prenatal administration); vs untreated vehicle controls
Protocol: FIGS. 5A-D are a series of drawings illustrating that differential metabolites impact ASD-relevant behaviors in SPF mice in accordance with some embodiments herein. FIG. 5A: The abundance of select metabolites in the offspring microbiome is correlated with behavior of male offspring. Spearman correlation between the microbiome and mouse behavior, by donor (See FIGS. 1A-0). […] Color scale denotes Spearman ρ. […] Groups of mice were orally administered 10 mM Taurine or 5AV in drinking water before mating, and throughout their lifetime. Offspring were tested by marble burying, direct social interaction, and open field tests, and compared to untreated vehicle controls. […] Social Behavior (SI)-direct social interaction (DSI) test-As a more sensitive measure for sociability, the direct social interaction test was also used, where a mouse is allowed to interact with a stimulus mouse while the interaction is being recorded. Each mouse was introduced to a fresh empty cage and allowed to habituate for 10 minutes; grooming behavior was scored for the last five minutes of this period. […] A blinded observer scored videos for any social approach, aggression, or grooming behavior […] using the ETHOM software (Shih and Mok, 2000). […] As such, it will be appreciated that at a given stage of development, some molecules may readily pass through the blood brain barrier, while others may not.

[2] = system: lncRNAs and ASD-relevant isoforms in the STR and PFC of BTBR mice; assay: qPCR of BTBR brains after 5AV and taurine administration; conditions: adult metabolite-treated BTBR mice
Text: FIGS. 5A-D are a series of drawings illustrating that differential metabolites impact ASD-relevant behaviors in SPF mice in accordance with some embodiments herein. FIG. 5A: The abundance of select metabolites in the offspring microbiome is correlated with behavior of male offspring. Spearman correlation between the microbiome and mouse behavior, by donor (See FIGS. 1A-0). Benjamini-Hochberg adjusted p-values (α≤0.05) for significant correlations are noted. Color scale denotes Spearman ρ. […] Groups of mice were orally administered 10 mM Taurine or 5AV in drinking water before mating, and throughout their lifetime. Offspring were tested by marble burying, direct social interaction, and open field tests, and compared to untreated vehicle controls. Results are aggregated from 2 independent experiments. NControl=42, N5AV=52, NTaurine=36. Bar plots denote mean and S.E.M. Hypothesis on differences in means were tested by ANOVA on trimmed means (10%) and subsequent posthoc tests. FIGS. 5E-L: qPCR of BTBR brains after 5AV and taurine administration. Results are aggregated from 2 independent experiments. Hypothesis on differences in means were tested by ANOVA on trimmed means (10%) and subsequent posthoc tests. FIGS. 5M-V: series of graphs illustrating E18 B6 feeding 5AV and Taurine targeted metabolomics.
In view of the results described herein, it was further hypothesized that 5AV and taurine exert their effects on behavioral outcomes by altering expression patterns in the brain. To address this hypothesis, brains were collected from adult metabolite-treated BTBR mice and relative expression was quantified for select genes and isoforms that are differentially expressed between TD- and ASD-colonized offspring (FIGS. 3A-J). […] To test whether the expression of splice variants containing exons highlighted by rMATs analysis (see FIG. 3B, Tables 2.1-2.3), isoforms of interest were identified, which contain or exclude exons implicated by the analysis. […] Therefore, treatment with 5AV and taurine according to some embodiments affects the expression of lncRNAs and of specific ASD-relevant isoforms in the brains of BTBR mice treated throughout their lives.

Row | SMILES | other effects on neuron activity (mIPSCs, excitability; FIGS. 8B-E) [1] | sociability / social duration (direct social interaction) (BTBR mice) | expression of isoforms containing a A3SS event in Gigyf2 [2] | expression of the lncRNAs Gm17259 and Gm13016 in the STR ([2]; striatum) | mEPSC amplitude [1] | expression of isoforms of Tip12 and Pogz [2] | expression of transcripts of Neurexin 1 in the STR ([2]; striatum)
1 | NCCS(=O)(=O)O [taurine] | not otherwise observed | trend toward increasing social duration in all mice; also recorded: increases sociability | increases the expression | increased | – | – | –
2 | NCCCCC(=O)O [5AV, 5-Aminovaleric acid] | not otherwise observed | increases sociability | – | increased | induced a decrease in mEPSC amplitude, it was not statistically significant | marginal effects | increased in expression
